In patent US11186564B2, “Dual NAV1.2/5HT2a inhibitors for treating CNS disorders” (Sunovion Pharmaceuticals Inc., priority 2016, dated 2021) one finds IC50 and inhibition data, which are given here for 33 compounds.

The target in test [1] is T1, recombinant human serotonin receptor 5-HT2A (Homo sapiens, UniProt P28223).
T1 construct: expressed in transfected cells; method B: loaded with Ca2+ dye
Briefly: 5-HT2A antagonist Ca2+ assay in CHO-K1 cells (method A aequorin luminescence / method B FLIPR fluorescence). The format is cell-based. The conditions noted are these: antagonist mode vs EC80 of reference agonist, method A or B. Summed up: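 IC50 was obtained by nonlinear regression of percent inhibition of the EC80 agonist Ca2+ response in CHO-K1 cells stably expressing human 5-HT2A. The readout was aequorin luminescence with agonist injected 15 min after compound (A), or Ca2+-dye fluorescence on FLIPR with serotonin as agonist (B).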

Test [2] concerns the target human sodium channel NaV1.2 (Homo sapiens, UniProt Q99250). Briefly: NaV1.2 inhibition, automated patch-clamp (Q-Patch HTX), slow inactivated state (state C). The class given is cell-based. The settings on record: for IC50: read-out: NaV1.2 IC50; for inhibition at 1 µM: 1 μM compound, read-out: NaV1.2 (% inh), 1 μM; for inhibition at 10 µM: read-out: NaV1.2 (% inh), 10 μM. An outline of the steps:
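IC50 comes from a least-squares fit of percent inhibition, relative to vehicle, of current in the slow-inactivated state. That state is reached by a 10 s prepulse to −50 mV, then 15 ms at −90 mV, then a 5 ms test pulse to 0 mV. Human NaV1.2 in stable CHO K-1 cells, held at −100 mV, automated patch clamp.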
On the technique in general: Patch clamp records ionic current or voltage across a cell membrane.

The mark [3] stands for this setting: hNaV1.2 CHO cells, slow inactivated state.
[4] abbreviates: 10 μM compound, hNaV1.2 CHO cells, slow inactivated state.

Structures are written as SMILES. Structures can show the parent of a compound that is named as a salt. Where two headings read alike, the source gives them in different places.

human sodium channel NaV1.2, sequence (Q99250 whole entry): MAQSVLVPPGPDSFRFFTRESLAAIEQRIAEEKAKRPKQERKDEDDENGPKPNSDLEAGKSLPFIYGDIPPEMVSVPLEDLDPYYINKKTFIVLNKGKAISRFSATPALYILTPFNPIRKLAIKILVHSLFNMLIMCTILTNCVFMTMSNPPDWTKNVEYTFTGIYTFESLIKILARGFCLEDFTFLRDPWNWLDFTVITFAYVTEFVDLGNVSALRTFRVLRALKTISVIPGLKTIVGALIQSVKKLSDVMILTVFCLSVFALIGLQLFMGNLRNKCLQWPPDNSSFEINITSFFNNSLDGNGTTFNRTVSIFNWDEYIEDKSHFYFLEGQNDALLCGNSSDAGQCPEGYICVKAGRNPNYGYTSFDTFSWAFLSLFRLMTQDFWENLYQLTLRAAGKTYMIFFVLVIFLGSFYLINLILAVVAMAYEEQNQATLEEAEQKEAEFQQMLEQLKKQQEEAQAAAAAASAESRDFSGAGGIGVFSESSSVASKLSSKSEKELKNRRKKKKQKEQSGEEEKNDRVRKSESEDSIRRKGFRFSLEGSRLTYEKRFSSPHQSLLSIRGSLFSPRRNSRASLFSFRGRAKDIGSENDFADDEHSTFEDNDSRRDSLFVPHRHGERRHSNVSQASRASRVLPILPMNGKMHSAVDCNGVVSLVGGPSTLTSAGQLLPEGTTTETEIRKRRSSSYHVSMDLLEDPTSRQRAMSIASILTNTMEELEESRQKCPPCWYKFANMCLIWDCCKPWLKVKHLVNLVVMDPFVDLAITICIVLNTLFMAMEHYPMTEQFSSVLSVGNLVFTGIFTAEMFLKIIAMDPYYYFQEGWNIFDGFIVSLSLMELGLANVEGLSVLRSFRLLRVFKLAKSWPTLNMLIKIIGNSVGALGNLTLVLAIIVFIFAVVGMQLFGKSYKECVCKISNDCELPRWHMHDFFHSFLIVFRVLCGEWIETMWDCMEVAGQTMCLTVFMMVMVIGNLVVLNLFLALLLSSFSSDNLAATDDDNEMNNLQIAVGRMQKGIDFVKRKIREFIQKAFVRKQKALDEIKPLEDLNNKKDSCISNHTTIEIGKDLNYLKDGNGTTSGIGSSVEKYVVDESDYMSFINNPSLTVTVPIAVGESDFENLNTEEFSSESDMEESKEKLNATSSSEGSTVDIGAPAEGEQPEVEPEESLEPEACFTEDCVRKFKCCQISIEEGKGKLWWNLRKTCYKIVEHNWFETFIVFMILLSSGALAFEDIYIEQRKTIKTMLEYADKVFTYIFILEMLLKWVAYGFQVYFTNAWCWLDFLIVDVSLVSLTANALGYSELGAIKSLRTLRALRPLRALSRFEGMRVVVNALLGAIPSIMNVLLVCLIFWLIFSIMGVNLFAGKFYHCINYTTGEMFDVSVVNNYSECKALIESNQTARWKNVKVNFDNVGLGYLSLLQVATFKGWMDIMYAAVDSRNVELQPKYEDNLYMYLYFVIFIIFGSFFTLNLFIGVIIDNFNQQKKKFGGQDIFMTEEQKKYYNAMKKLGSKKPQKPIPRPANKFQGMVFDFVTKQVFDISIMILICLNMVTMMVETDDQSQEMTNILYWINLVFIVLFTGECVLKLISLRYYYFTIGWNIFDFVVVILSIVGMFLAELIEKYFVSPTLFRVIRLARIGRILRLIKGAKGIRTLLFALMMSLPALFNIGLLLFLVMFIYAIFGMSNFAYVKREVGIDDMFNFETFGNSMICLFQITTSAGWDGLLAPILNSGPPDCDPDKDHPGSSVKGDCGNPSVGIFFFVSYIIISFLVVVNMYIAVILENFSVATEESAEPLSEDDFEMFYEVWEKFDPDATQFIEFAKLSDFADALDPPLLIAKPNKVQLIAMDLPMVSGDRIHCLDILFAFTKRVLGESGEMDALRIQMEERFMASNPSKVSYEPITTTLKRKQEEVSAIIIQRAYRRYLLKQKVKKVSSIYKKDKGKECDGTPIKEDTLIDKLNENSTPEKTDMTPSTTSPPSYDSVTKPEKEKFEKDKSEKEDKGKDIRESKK
T1 sequence (P28223 whole entry): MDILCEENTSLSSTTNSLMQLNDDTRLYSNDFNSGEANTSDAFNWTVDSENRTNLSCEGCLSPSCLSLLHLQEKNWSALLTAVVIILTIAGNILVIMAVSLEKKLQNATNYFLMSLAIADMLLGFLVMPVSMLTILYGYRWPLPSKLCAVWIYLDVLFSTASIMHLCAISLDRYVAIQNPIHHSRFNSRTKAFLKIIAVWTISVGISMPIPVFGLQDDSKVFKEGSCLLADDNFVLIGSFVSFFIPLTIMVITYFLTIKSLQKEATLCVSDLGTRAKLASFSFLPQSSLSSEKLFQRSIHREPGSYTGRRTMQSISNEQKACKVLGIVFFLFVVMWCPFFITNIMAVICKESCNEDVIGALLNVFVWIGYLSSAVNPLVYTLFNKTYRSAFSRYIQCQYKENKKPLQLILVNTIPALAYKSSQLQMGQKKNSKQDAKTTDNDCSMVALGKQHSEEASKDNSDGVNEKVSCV

Take `COc1ccc2c(c1)C(CN1CCC(OCc3ccccc3F)CC1)CC2` (stereo not shown) [Example 243, 4-((2-fluorobenzyl)oxy)-1-((6-methoxy-2,3-dihydro-1H-inden-1-yl)methyl)piperidine]: the IC50 (commonly the concentration that inhibits the measured activity by half) is 0.36 µM in test [1] (read-out: 5HT2A IC50) and 0.1 µM in test [2] (setting [3]).

Consider `COc1ccc2c(c1)C(CN1CC[C@@H](Oc3ccccc3OC)C[C@@H]1C)CC2` (stereo partly drawn) [Example 102, (2S,4R)-1-((6-methoxy-2,3-dihydro-1H-inden-1-yl)methyl)-4-(2-methoxyphenoxy)-2-methylpiperidine], for which the IC50 in test [1] (read-out: 5HT2A IC50) is 0.15 µM. Moreover, the inhibition at 1 µM in test [2] (setting [3]) was 82%.

For the compound `OC(COC1CCCCC1)CN1CCC2(CC1)OCc1ccccc12` (stereo not shown) [Example 393, 1′-(cyclohexyloxy)-3-(3H-spiro[isobenzofuran-1,4′-piperidin]-1′-yl)propan-2-ol], in test [1] (5HT2A IC50, μM), the IC50 worked out at 1.8 µM. The inhibition at 10 µM in test [2] (CHO) was found to be 93%.

For `Fc1ccc(OCCCN2CCN(c3nsc4ccccc34)CC2)cc1` [Example 73, 3-(4-(3-(4-fluorophenoxy)propyl)piperazin-1-yl)benzo[d]isothiazole], the IC50 in test [1] (read-out: 5HT2A IC50) stood at 0.002 µM. The inhibition at 10 µM in test [2] (setting [4]) worked out at 91%.

`Cc1cccc(N2CCN(CC3COCc4ccccc43)CC2)c1C` (stereo not shown) [Example 57, 1-(2,3-dimethylphenyl)-4-(isochroman-4-ylmethyl)piperazine]: the IC50 in test [1] (read-out: 5HT2A IC50) amounted to 0.1 µM. In addition, the inhibition at 10 µM in test [2] (setting [4]) was 83%.

With `O=C1c2ccccc2CN1CCN1CCC(Oc2ccc(F)cc2)CC1` [Example 187, 2-(2-(4-(4-fluorophenoxy)piperidin-1-yl)ethyl)isoindolin-1-one], the IC50 in test [1] (read-out: 5HT2A IC50) was found to be 0.07 µM. In test [2] (setting [3]), the inhibition at 1 µM is 14%.

`Fc1ccc(OC2CCN(CC3CCc4cccnc43)CC2)cc1` (stereo not shown) [Example 128, 7-((4-(4-fluorophenoxy)piperidin-1-yl)methyl)-6,7-dihydro-5H-cyclopenta[b]pyridine]: the IC50 in test [1] (read-out: 5HT2A IC50) was 0.05 µM. Besides, the inhibition at 10 µM in test [2] (setting [4]) turned out to be 72%.

With `COc1ccccc1O[C@@H]1CCN(CCC2CCOc3ccccc32)[C@@H](C)C1` (stereo partly drawn) [Example 182, (2S,4R)-1-(2-(chroman-4-yl)ethyl)-4-(2-methoxyphenoxy)-2-methylpiperidine], in test [1] (read-out: 5HT2A IC50), the IC50 is 0.2 µM. For the same compound, the inhibition at 1 µM in test [2] (setting [3]) was 52%.

On to `OC(CO[C@@H]1CCCc2ccccc21)CN1CC[C@@H](Oc2ccc(F)cc2)C1` (stereo partly drawn) [Example 50, 1-((R)-3-(4-fluorophenoxy)pyrrolidin-1-yl)-3-(((R)-1,2,3,4-tetrahydronaphthalen-1-yl)oxy)propan-2-ol], for which the figures for the IC50 in test [1] (read-out: 5HT2A IC50) and in test [2] (setting [3]) were 0.06 µM and 1.29 µM, respectively.

Consider `O=C1c2ccccc2CCN1CCN1CCC(Oc2ccccc2)CC1` [Example 191, 2-(2-(4-phenoxypiperidin-1-yl)ethyl)-3,4-dihydroisoquinolin-1(2H)-one], for which the IC50 in test [1] (read-out: 5HT2A IC50) was found to be 0.05 µM. The inhibition at 1 µM in test [2] (setting [3]) came out at 18%. The inhibition at 10 µM in test [2] (setting [4]) amounted to 52%.

In the case of `O=C1c2cc(Cl)ccc2CCCN1CCN1CCC(Oc2ccc(F)cc2)CC1` [Example 209, 8-chloro-2-(2-(4-(4-fluorophenoxy)piperidin-1-yl)ethyl)-2,3,4,5-tetrahydro-1H-benzo[c]azepin-1-one], the IC50 in test [1] (read-out: 5HT2A IC50) came to 0.02 µM; in test [2] (setting [3]) it was 0.27 µM.

For the compound `Fc1ccc(OC2CCN(CCC3CCCOC3)CC2)cc1` (stereo not shown) [Example 169, 4-(4-fluorophenoxy)-1-(2-(tetrahydro-2H-pyran-3-yl)ethyl)piperidine], the IC50 in test [1] (read-out: 5HT2A IC50) was 0.28 µM. In test [2] (setting [3]), the inhibition at 1 µM was determined as 10%.

On to `Fc1ccc(O[C@@H]2CCN(CC3CCc4ncccc43)C2)cc1` (stereo partly drawn) [Example 3, 5-(((R)-3-(4-fluorophenoxy)pyrrolidin-1-yl)methyl)-6,7-dihydro-5H-cyclopenta[b]pyridine], for which the IC50 in test [1] (read-out: 5HT2A IC50) worked out at 1.88 µM. For the same compound, in test [2] (setting [3]), the inhibition at 1 µM was -5%.

As for `OC(COC1CCCCC1)CN1CCC2(CCc3ccccc32)CC1` (stereo not shown) [Example 400, 1-(cyclohexyloxy)-3-(2,3-dihydrospiro[indene-1,4′-piperidin]-1′-yl)propan-2-ol], in test [1] (5HT2A IC50, μM), the IC50 is 2.29 µM. Besides, the inhibition at 10 µM in test [2] (CHO) is 102%.

`c1ccc2c(c1)CC(CN1CCC3(CC1)Cc1ccccc1O3)C2` [Example 396, 1′-((2,3-dihydro-1H-inden-2-yl)methyl)-3H-spiro[benzofuran-2,4′-piperidine]]: the IC50 is 0.09 µM in test [1] (read-out: 5HT2A IC50) and 0.17 µM in test [2] (setting [3]).

Consider `Fc1ccc(OC2CCCCN(CC3CCc4ccccc43)C2)cc1` (stereo not shown) [Example 275, 1-((2,3-dihydro-1H-inden-1-yl)methyl)-3-(4-fluorophenoxy)azepane], for which the IC50 in test [1] (read-out: 5HT2A IC50) is 0.4 µM. Further, in test [2] (setting [3]), the inhibition at 1 µM was determined as 2%.

For the compound `O=C1c2ccccc2CCN1CCN1CCC(Oc2cccc(Cl)c2)CC1` [Example 194, 2-(2-(4-(3-chlorophenoxy)piperidin-1-yl)ethyl)-3,4-dihydroisoquinolin-1(2H)-one], the half-inhibitory concentration (IC50) in test [1] (read-out: 5HT2A IC50) came out at 0.11 µM; in test [2] (setting [3]) it was 0.23 µM.

`N#Cc1cccc2c1CCC2CN1CCC(Oc2ccc(F)cc2)CC1` (stereo not shown) [Example 122, 1-((4-(4-fluorophenoxy)piperidin-1-yl)methyl)-2,3-dihydro-1H-indene-4-carbonitrile]: the IC50 stood at 0.09 µM in test [1] (read-out: 5HT2A IC50) and 0.11 µM in test [2] (setting [3]).

On to `COc1ccc2c(c1)C(CN1CCC(Oc3ccncc3)CC1)CC2` (stereo not shown) [Example 117, 4-((1-((6-methoxy-2,3-dihydro-1H-inden-1-yl)methyl)piperidin-4-yl)oxy)pyridine], for which, in test [1] (read-out: 5HT2A IC50), the IC50 came to 0.58 µM. Further, in test [2] (setting [3]), the inhibition at 1 µM came to 1%.

Consider `O=C1c2ccccc2CCN1CCN1CC[C@H](Oc2ccc(F)cc2)C1` [Example 26, (S)-2-(2-(3-(4-fluorophenoxy)pyrrolidin-1-yl)ethyl)-3,4-dihydroisoquinolin-1(2H)-one], for which the IC50 in test [1] (read-out: 5HT2A IC50) was found to be 0.17 µM. Also, the inhibition at 10 µM in test [2] (setting [4]) stood at 70%.

As for `O[C@H](CO[C@@H]1CCCc2ccccc21)CN1CC[C@@H](Oc2ccc(F)cc2)C1` [Example 52, (S)-1-((R)-3-(4-fluorophenoxy)pyrrolidin-1-yl)-3-(((R)-1,2,3,4-tetrahydronaphthalen-1-yl)oxy)propan-2-ol], the IC50 in test [1] (read-out: 5HT2A IC50) was found to be 0.14 µM; in test [2] (setting [3]), 1.69 µM.

For the compound `COc1ccccc1N1CCN(CC(O)COc2cccc3ccccc23)CC1` (stereo not shown) [Example 92, 1-(4-(2-methoxyphenyl)piperazin-1-yl)-3-(naphthalen-1-yloxy)propan-2-ol], the figures for the IC50 in test [1] (read-out: 5HT2A IC50) and in test [2] (setting [3]) were 0.23 µM and 0.01 µM, respectively.

`COc1ccccc1OC1CCC2(CCN(CC3CCc4cccnc43)C2)C1` (stereo not shown) [Example 373, 2-((6,7-dihydro-5H-cyclopenta[b]pyridin-7-yl)methyl)-7-(2-methoxyphenoxy)-2-azaspiro[4.4]nonane]: the results for the IC50 in test [1] (read-out: 5HT2A IC50) and in test [2] (setting [3]) were 0.44 µM and 2.42 µM, respectively.

For `Fc1ccc(OC2CCN(CC3CCOc4ccccc43)CC2)cc1` (stereo not shown) [Example 165, 1-(chroman-4-ylmethyl)-4-(4-fluorophenoxy)piperidine], the IC50 in test [1] (read-out: 5HT2A IC50) stood at 0.02 µM; in test [2] (setting [3]) it was 0.91 µM.

For `c1ccc2c(c1)CCC1(CCN(CC3COCc4ccccc43)CC1)O2` (stereo not shown) [Example 414, 1′-(isochroman-4-ylmethyl)spiro[chromane-2,4′-piperidine]], the IC50 in test [1] (read-out: 5HT2A IC50) came to 0.26 µM. Besides, the inhibition at 1 µM in test [2] (setting [3]) came out at 29%.

Turning to `Fc1ccc(OC2CCN(CC3Cc4cccnc4C3)CC2)cc1` (stereo not shown) [Example 155, 6-((4-(4-fluorophenoxy)piperidin-1-yl)methyl)-6,7-dihydro-5H-cyclopenta[b]pyridine dihydrochloride], the IC50 amounted to 0.04 µM in test [1] (read-out: 5HT2A IC50) and 1 µM in test [2] (setting [3]).

As for `C1=C(c2ccccc2)COC12CN(CC1CCc3ccccc31)C2` (stereo not shown) [Example 358, 2-((2,3-dihydro-1H-inden-1-yl)methyl)-7-phenyl-5-oxa-2-azaspiro[3.4]oct-7-ene], the IC50 is 0.87 µM in test [1] (read-out: 5HT2A IC50) and more than 10 µM in test [2] (setting [3]).

Consider `O=C1Cc2ccccc2N1CCCN1CCC(Oc2ccc(F)cc2)CC1` [Example 219, 1-(3-(4-(4-fluorophenoxy)piperidin-1-yl)propyl)indolin-2-one], for which the IC50 in test [1] (read-out: 5HT2A IC50) was 0.01 µM. The inhibition at 10 µM in test [2] (setting [4]) is 54%.

Consider `Fc1ccc(O[C@@H]2CCN(CC3COCc4ccccc43)C2)cc1` (stereo partly drawn) [Example 11, (3R)-3-(4-fluorophenoxy)-1-(isochroman-4-ylmethyl)pyrrolidine], for which, in test [1] (read-out: 5HT2A IC50), the IC50 was 0.59 µM. The inhibition at 1 µM in test [2] (setting [3]) worked out at 29%.

Take `Cc1ccc(N2CCN(C[C@H](O)COC3CCCCC3)CC2)cc1` [Example 77, (S)-1-(cyclohexyloxy)-3-(4-(p-tolyl)piperazin-1-yl)propan-2-ol]: the results for the IC50 in test [1] (read-out: 5HT2A IC50) and in test [2] (setting [3]) were 0.21 µM and 9.02 µM, respectively.

Turning to `COc1ccccc1O[C@H]1CCN(CC2Cc3ccccc3C2)[C@H](C)C1` [Example 141, (2R,4S)-1-((2,3-dihydro-1H-inden-2-yl)methyl)-4-(2-methoxyphenoxy)-2-methylpiperidine], the IC50 in test [1] (read-out: 5HT2A IC50) amounted to 0.2 µM; in test [2] (setting [3]), 1.01 µM.

With `c1ccc([C@H]2COC3(CCN(C[C@H]4CCc5ccccc54)CC3)C2)cc1` (single isomer, unassigned) [Compound 377], the IC50 in test [1] (read-out: 5HT2A IC50) was determined as 0.03 µM; in test [2] (setting [3]), 0.79 µM.

With `COc1ccccc1OC1CCN(CC2Cc3cccnc3C2)CC1` (stereo not shown) [Example 139, 6-((4-(2-methoxyphenoxy)piperidin-1-yl)methyl)-6,7-dihydro-5H-cyclopenta[b]pyridine], the IC50 in test [1] (read-out: 5HT2A IC50) came to 0.18 µM. Also, the inhibition at 1 µM in test [2] (setting [3]) is -10%.
